According to patent US6716851B2, “Substituted 2-aryl-4-arylaminopyrimidines and analogs as activators or caspases and inducers of apoptosis and the use thereof” (Cytovia, Inc., priority 2000, dated 2004):

How the values were obtained:
Assay type in all cases: cell-based
MCF-7 cells = assay: Cell proliferation assay (GI50) in MCF-7 cells; conditions: Homo sapiens, MCF7; MCF-7, 48 h
Experimental: [Worded in the source for another cell line; this cell line is reported under the same test.] (§1) T-47D cells were grown and harvested as in Example 221. An aliquot of 90 μl of cells (2.2×10^4 cells/ml) was added to a well of a 96-well microtiter plate containing 10 μl of a 10% DMSO in RPMI-1640 media solution containing 1 nM to 100 μM of 4-(3-methoxyanilino)-2-(2-pyridinyl)-6-(trifluoromethyl)pyrimidine (0.1 nM to 10 μM final). An aliquot of 90 μl of cells was added to a well of a 96-well microtiter plate containing 10 μl of a 10% DMSO in RPMI-1640 media solution without compound as the control sample for maximal cell proliferation (AMax). The samples were mixed by agitation and then incubated at 37° C. for 48 h in a 5% CO2-95% humidity incubator. After incubation, the samples were removed from the incubator and 20 μl of CellTiter 96 AQueous One Solution Cell Proliferation^TM reagent (Promega) was added. The samples were mixed by agitation and incubated at 37° C. for 2-4 h in a 5% CO2-95% humidity incubator. Using an absorbance plate reader (Model 1420 Wallac Instruments), an initial reading (T=0) was made approximately 1-2 min after addition of the solution, employing absorbance at 490 nm. This determines the possible background absorbance of the test compounds. No absorbance for 4-(3-methoxyanilino)-2-(2-pyridinyl)-6-(trifluoromethyl)pyrimidine was found at 490 nm. After the 2-4 h incubation, the samples were read for absorbance as above (ATest). […]

SK-Br-3 cells = assay: Cell proliferation assay (GI50) in SK-Br-3 cells; conditions: Homo sapiens, SK-BR-3, 48 h
Experimental: [Worded in the source for another cell line; this cell line is reported under the same test.] as §1

[1] = tested on: PC-3 (prostate cancer cell line); assay: Cell proliferation assay (GI50) in PC-3 cells; conditions: Homo sapiens, PC-3, 48 h
Experimental: [Worded in the source for another cell line; this cell line is reported under the same test.] as §1

[2] = tested on: P388 (mouse leukemia cell line); assay: Cell proliferation assay (GI50) in P388 cells; conditions: P388, 48 h
Experimental: [Worded in the source for another organism; used here, by the source, with some conditions changed.] as §1

[3] = tested on: MES-SA (sarcoma cell line); assay: Cell proliferation assay (GI50) in MES-SA cells; conditions: Homo sapiens, 48 h
Experimental: [Worded in the source for another cell line; this cell line is reported under the same test.] as §1

T47D cells = assay: Clonogenic survival of T47D cells; conditions: Homo sapiens, 48 h treatment, colonies after 7-10 days, read-out: IC50 inhibition of clonogenic survival (colony forming ability), T47D
Experimental: (§2) T47D and MX-1 cells were grown according to the conditions according conditions recommended by American Type Culture Collection. In a well of a 96 well plate, 30,000 cells were seeded and treated with tested compound at the indicated concentrations for 48 hr in a 5% CO2-95% humidity incubator at 37° C. Control wells were treated with the same amount of solvent (DMSO) as the compound samples. After the 48 h treatment, the supernatant was removed to a sterile culture tube and the wells washed with phosphate buffered saline, and the adherent cells trypsinized for 5 min. The trypsinzed cells were added to the culture supernatant, cells were collected (1,200 rpm, 10 min), washed with phosphate buffered saline, and resuspended in fresh media. The cells were counted for trypan blue negative cells, and the cells diluted with fresh media to 1,000 cells/ml. To a well of a 24-well plate, 0.1 ml of the cell suspension was added along with 1 ml of fresh media (cell suspensions were passed through a 22G needle several times just before plating to form single cell suspensions). Plates are incubated in a 5% CO2-95% humidity incubator at 37° C. for 7-10 days. Colonies are counted when the sizes reached greater than 50 cells per colony. […] Colonies are rinsed with water and the colonies counted and the fraction surviving expressed as the percentage of the number of control colonies.

MX-1 cells = assay: Clonogenic survival of MX-1 cells; conditions: Homo sapiens, MX1; MX-1, 48 h treatment, colonies after 7-10 days; read-out: IC50 inhibition of clonogenic survival (colony forming ability), MX-1
Experimental: as §2

With `COc1cccc(Nc2cc(C(F)(F)F)nc(-c3ccccn3)n2)c1` [Compound A, 4-(3-methoxyanilino)-2-(2-pyridinyl)-6-(trifluoromethyl)pyrimidine] the GI50 (MCF-7 cells) was 100 nM, the GI50 (SK-Br-3 cells) was 60 nM and the GI50 [1] was over 10000 nM. It also gave a GI50 [2] of over 10000 nM, a GI50 [3] of over 10000 nM and an IC50 (T47D cells) of about 100 nM. It also gave an IC50 (MX-1 cells) of about 300 nM.
